The text below walks through data of ChEMBL document CHEMBL4483862, “Open-source discovery of chemical leads for next-generation chemoprotective antimalarials” (2018).

Bounds are passed on as bounds.

The assay deals with Plasmodium berghei. Put plainly: Luciferase/luciferin-expressing antifolate-resistant parasites were used to infect a culture of HepG2 cells that were pre-incubated with compounds. Infected hepatocytes emit light due to the luciferase reaction. Assay results are presented as the percent inhibition of light emission compared to control. […]. The assay is classed as functional. Conditions: sporozoite; for IC90: read-out: LUCIFERASE INFECTION ASSAY - IC90.

What is called IC50 is the midpoint of a concentration-inhibition curve. One may read the IC90 as the concentration at which the effect reaches the 90% level. Take `CC(=O)Nc1cccc(-c2cc(NC=O)c3ncc(-c4ccc(C(C)=O)cc4)n3c2)c1`: the IC90 is more than 8 µM. The IC50 (HEPG2TOX_HILL_SLOPE 0.38, HEPG2TOX_R_SQUARED 0.804, PBLUC_HILL_SLOPE 0.536, PBLUC_R_SQUARED 0.0495, read-out: LUCIFERASE INFECTION ASSAY - IC50) is more than 8 µM.
On to `c1ccc(-c2cn3c(-c4ccc5c(c4)OCO5)cnc3cn2)cc1`, for which the IC90 is more than 10.5 µM. For the setting “HEPG2TOX_HILL_SLOPE 0.346, HEPG2TOX_R_SQUARED 0.507, PBLUC_HILL_SLOPE 2.83, PBLUC_R_SQUARED 0.466, read-out: LUCIFERASE INFECTION ASSAY - IC50”, the IC50 was 9.02 µM.
`CCCc1cc(=O)n2ncc(-c3ccccc3)c2[nH]1`: the IC90 turned out to be 12.2 µM. Also, the IC50 (HEPG2TOX_HILL_SLOPE 0.383, HEPG2TOX_R_SQUARED 0.727, PBLUC_HILL_SLOPE 12.3, PBLUC_R_SQUARED 0.782, read-out: LUCIFERASE INFECTION ASSAY - IC50) was determined as 10.2 µM.
On to `CCOc1ccccc1NC(=O)/C=C/c1nnc2c3ccccc3cnn12`, for which the IC90 is more than 10 µM. The IC50 (HEPG2TOX_HILL_SLOPE 0.359, HEPG2TOX_R_SQUARED 0.214, PBLUC_HILL_SLOPE 0.79, PBLUC_R_SQUARED 0.499, read-out: LUCIFERASE INFECTION ASSAY - IC50) worked out at 1.82 µM.
Regarding `CC(C)Cc1ccc(C(C)c2nn3c(-c4cccnc4)nnc3s2)cc1` (stereo not drawn), the IC90 is 5.44 µM. Further, the IC50 (HEPG2TOX_HILL_SLOPE 0.365, HEPG2TOX_R_SQUARED 0.691, PBLUC_HILL_SLOPE 1.54, PBLUC_R_SQUARED 0.896, read-out: LUCIFERASE INFECTION ASSAY - IC50) was determined as 1.31 µM.
On to `COc1ccc(-c2cs/c(=N\c3ccccc3C(F)(F)F)n2/N=C/c2ccc(O)c(O)c2)cc1`, for which the IC90 was more than 10 µM. For the same molecule, the half-maximal inhibitory concentration (IC50) (HEPG2TOX_HILL_SLOPE 0.402, HEPG2TOX_R_SQUARED 0.786, PBLUC_HILL_SLOPE 2.07, PBLUC_R_SQUARED 0.586, read-out: LUCIFERASE INFECTION ASSAY - IC50) turned out to be 3.82 µM.
On to `Clc1ccccc1C(CNc1ncnc2sccc12)N1CCCC1` (stereo not drawn), for which the IC90 was more than 10 µM. The IC50 (HEPG2TOX_HILL_SLOPE 0.371, HEPG2TOX_R_SQUARED 0.706, PBLUC_HILL_SLOPE 3.78, PBLUC_R_SQUARED 0.473, read-out: LUCIFERASE INFECTION ASSAY - IC50) was 7.08 µM.
With `c1ccc2c(NCCNc3ncnc4ccccc34)cccc2c1`, the IC90 was 4.93 µM. The IC50 (HEPG2TOX_HILL_SLOPE 0.364, HEPG2TOX_R_SQUARED 0.666, PBLUC_HILL_SLOPE 0.695, PBLUC_R_SQUARED 0.76, read-out: LUCIFERASE INFECTION ASSAY - IC50) amounted to 0.209 µM.
In the case of `CC(Sc1nc2scc(-c3ccccc3)c2c(=O)n1C)c1ccccc1` (stereo not drawn), the IC90 was more than 10 µM. Moreover, the IC50 (HEPG2TOX_HILL_SLOPE 0.394, HEPG2TOX_R_SQUARED 0.0907, read-out: LUCIFERASE INFECTION ASSAY - IC50) was more than 10 µM.
On to `CNc1snc(C)c1C(=O)OCc1csc(-c2ccccc2)n1`, for which the IC90 turned out to be 1.26 µM. Besides, the IC50 (HEPG2TOX_HILL_SLOPE 0.385, HEPG2TOX_R_SQUARED 0.759, PBLUC_HILL_SLOPE 1.19, PBLUC_R_SQUARED 0.693, read-out: LUCIFERASE INFECTION ASSAY - IC50) came to 0.2 µM.
In the case of `CC(C)Cc1ccc(C(C)c2nn3c(-c4ccco4)nnc3s2)cc1` (stereo not drawn), the 90% effect concentration (IC90) is 0.257 µM. For the same molecule, the IC50 (HEPG2TOX_HILL_SLOPE 0.343, HEPG2TOX_R_SQUARED 0.467, PBLUC_HILL_SLOPE 2.04, PBLUC_R_SQUARED 0.902, read-out: LUCIFERASE INFECTION ASSAY - IC50) was 0.0873 µM.
For the molecule `CN(Cc1ccc(N2CCCCC2)cc1)C(=O)c1cc(-c2cccnc2)nc2ccccc12`, the IC90 was more than 10 µM. In addition, the IC50 (HEPG2TOX_HILL_SLOPE 0.393, HEPG2TOX_R_SQUARED 0.924, PBLUC_HILL_SLOPE 2.39, PBLUC_R_SQUARED 0.338, read-out: LUCIFERASE INFECTION ASSAY - IC50) turned out to be 4.33 µM.
For `CC(C(=O)Nc1cc([N+](=O)[O-])ccc1Cl)N(C)CC(=O)Nc1ccc(Cl)c(C(F)(F)F)c1` (stereo not drawn), the IC90 is more than 10 µM. Besides, the IC50 (HEPG2TOX_HILL_SLOPE 0.377, HEPG2TOX_R_SQUARED 0.303, read-out: LUCIFERASE INFECTION ASSAY - IC50) is more than 10 µM.
`Cc1ccc(-n2c(C)cc(C(=O)CSc3nc(N)cc(N)n3)c2C)cc1C`: the IC90 was found to be 4.39 µM. Besides, for the setting “HEPG2TOX_HILL_SLOPE 0.381, HEPG2TOX_R_SQUARED 0.896, PBLUC_HILL_SLOPE 2.47, PBLUC_R_SQUARED 0.602, read-out: LUCIFERASE INFECTION ASSAY - IC50”, the IC50 turned out to be 1.81 µM.
Regarding `CCOC(=O)c1sc(N)c(C#N)c1CSc1nnnn1-c1ccccc1`, the IC90 was more than 10 µM. Also, where the note is “HEPG2TOX_HILL_SLOPE 0.327, HEPG2TOX_R_SQUARED 0.288, read-out: LUCIFERASE INFECTION ASSAY - IC50”, the IC50 was more than 10 µM.
On to `CC(=O)c1c(C)[nH]c(C(=O)OCC(=O)Nc2ccccc2C(F)(F)F)c1C`, for which the IC90 was more than 10 µM. Also, the IC50 (HEPG2TOX_HILL_SLOPE 0.401, HEPG2TOX_R_SQUARED 0.713, read-out: LUCIFERASE INFECTION ASSAY - IC50) is more than 10 µM.
Turning to `CC1CN(CC(O)COCc2ccc(Cl)cc2)CCN1CC(O)COCc1ccc(Cl)cc1` (stereo not drawn), the IC90 is more than 10 µM. For the same molecule, the concentration for half-maximal inhibition (IC50) (HEPG2TOX_HILL_SLOPE 0.385, HEPG2TOX_R_SQUARED 0.947, PBLUC_HILL_SLOPE 12.7, PBLUC_R_SQUARED 0.144, read-out: LUCIFERASE INFECTION ASSAY - IC50) was found to be 9.06 µM.
As to `COc1ccc(-c2cnc3cnc(-c4ccccc4C)cn23)cc1`, the IC90 was determined as 0.0475 µM. Besides, the half-inhibitory concentration (IC50) (HEPG2TOX_HILL_SLOPE 0.359, HEPG2TOX_R_SQUARED 0.561, PBLUC_HILL_SLOPE 8.88, PBLUC_R_SQUARED 0.713, read-out: LUCIFERASE INFECTION ASSAY - IC50) is 0.0371 µM.
As for `COc1ccc(OC)c(CCNc2nc3cnc(-c4ccccc4C)cc3n2C)c1`, the IC90 was 0.0474 µM. For the setting “HEPG2TOX_HILL_SLOPE 0.343, HEPG2TOX_R_SQUARED 0.532, PBLUC_HILL_SLOPE 5.82, PBLUC_R_SQUARED 0.631, read-out: LUCIFERASE INFECTION ASSAY - IC50”, the IC50 was found to be 0.0325 µM.
Take `Nc1nc(N)nc(COC(=O)c2c3c(nc4ccccc24)/C(=C/c2c(F)cccc2Cl)CC3)n1`: the concentration for an effect of 90% (IC90) was more than 10 µM. Where the note is “HEPG2TOX_HILL_SLOPE 0.332, HEPG2TOX_R_SQUARED 0.762, PBLUC_HILL_SLOPE 7.86, PBLUC_R_SQUARED 0.0482, read-out: LUCIFERASE INFECTION ASSAY - IC50”, the IC50 is more than 10 µM.
Turning to `Cc1n(C)c2c([n+]1C)C(=O)c1ccccc1C2=O`, the concentration for an effect of 90% (IC90) amounted to 0.128 µM. In addition, under “HEPG2TOX_HILL_SLOPE 0.401, HEPG2TOX_R_SQUARED 0.884, PBLUC_HILL_SLOPE 1.09, PBLUC_R_SQUARED 0.944, read-out: LUCIFERASE INFECTION ASSAY - IC50”, the IC50 was found to be 0.017 µM.
For `COc1ccc(C(=O)N2CCN(c3ncnc4cc(Cl)ccc34)CC2)cc1`, the IC90 was more than 10 µM. Besides, the IC50 (HEPG2TOX_HILL_SLOPE 0.344, HEPG2TOX_R_SQUARED 0.575, PBLUC_HILL_SLOPE 18.9, PBLUC_R_SQUARED 0.0549, read-out: LUCIFERASE INFECTION ASSAY - IC50) amounted to 9.92 µM.
As to `Cc1ccc(-n2nc(C)c(C(=O)Nc3ccccc3N3CCN(C)CC3)n2)c(C)c1`, the IC90 was more than 10 µM. Further, the IC50 (HEPG2TOX_HILL_SLOPE 0.399, HEPG2TOX_R_SQUARED 0.0602, read-out: LUCIFERASE INFECTION ASSAY - IC50) was more than 10 µM.
With `CCS(=O)(=O)N1CCC(C(=O)Nc2nc3ccc(Oc4ccccc4)cc3s2)CC1`, the IC90 is more than 10 µM. Where the note is “HEPG2TOX_HILL_SLOPE 0.324, HEPG2TOX_R_SQUARED 0.65, PBLUC_HILL_SLOPE 2.34, PBLUC_R_SQUARED 0.492, read-out: LUCIFERASE INFECTION ASSAY - IC50”, the IC50 came out at 5.6 µM.
In the case of `CC1=C2CCC(C)CC23C2C(=O)N(Cc4ccc(Cl)cc4)C(=O)C2C1C1C(=O)N(Cc2ccc(Cl)cc2)C(=O)C13` (stereo not drawn), the IC90 was more than 5.71 µM. Where the note is “HEPG2TOX_HILL_SLOPE 0.355, HEPG2TOX_R_SQUARED 0.414, PBLUC_HILL_SLOPE 1.68, PBLUC_R_SQUARED 0.433, read-out: LUCIFERASE INFECTION ASSAY - IC50”, the IC50 turned out to be 3.28 µM.
Take `Cc1oc2c(c1C(=O)N1CCN(CCO)CC1)C(=O)c1ccccc1C2=O`: the IC90 was more than 10 µM. Besides, the IC50 (HEPG2TOX_HILL_SLOPE 0.333, HEPG2TOX_R_SQUARED 0.261, PBLUC_HILL_SLOPE 0.243, PBLUC_R_SQUARED 0.141, read-out: LUCIFERASE INFECTION ASSAY - IC50) turned out to be 8.15 µM.
In the case of `O=C(NC1CC1)c1ccc(-c2cn3c(-c4ccc(C(=O)NC5CC5)cc4)cnc3cn2)cc1`, the IC90 was more than 7.54 µM. Under “HEPG2TOX_HILL_SLOPE 0.33, HEPG2TOX_R_SQUARED 0.326, PBLUC_HILL_SLOPE 6.32, PBLUC_R_SQUARED 0.0215, read-out: LUCIFERASE INFECTION ASSAY - IC50”, the IC50 was more than 7.54 µM.
Consider `O=C(Nc1nc2ccccn2c1C(=O)NC1CCCC1)c1ccccc1F`, for which the IC90 was found to be 4.76 µM. For the same molecule, the concentration for half-maximal inhibition (IC50) (HEPG2TOX_HILL_SLOPE 0.364, HEPG2TOX_R_SQUARED 0.251, PBLUC_HILL_SLOPE 7.71, PBLUC_R_SQUARED 0.78, read-out: LUCIFERASE INFECTION ASSAY - IC50) was found to be 3.58 µM.
Regarding `FC(F)(F)Oc1ccc(-c2cnc3ccc(NCc4ccncc4)nn23)cc1`, the IC90 stood at 1.17 µM. Besides, the IC50 (HEPG2TOX_HILL_SLOPE 0.34, HEPG2TOX_R_SQUARED 0.62, PBLUC_HILL_SLOPE 3.72, PBLUC_R_SQUARED 0.739, read-out: LUCIFERASE INFECTION ASSAY - IC50) was 0.649 µM.
